Tests used:
Type in all cases: in vivo, Kunming mice
[1] = test system: mice with sterility induced by androgens; assay: Quantities of follicles, oocytes and interstitial gland composition in ovary slices of androgen-sterile mice; conditions: 18 mg/kg intragastric, 4 weeks, TP-modelled mice
Protocol: (§1) 120 Kunming female mice (20 days old) were randomly divided into 6 groups according to their weights and there were 20 in each group. 20 mice in the normal control group were subcutaneously injected with saline and the remaining 100 mice were used in modeling and subcutaneously injected with TP (testosterone propionate). The modeling method is described like this, 100 mice were subcutaneously injected with 0.06 mL TP (testosterone propionate), 4 d/time, continuous injection for 2 weeks and drug withdrawal for 1 weeks. Those mice after modelling were randomly divided into […], i.e. model control group, Clomifenecitrate capsules group and HDG (high-dose group), MDG (medium-dose group) and LDG (low-dose group) of the drug combination in the present invention.
(§2) After 4 weeks of administration, the drug was suspended for 48 h, 10 mice were executed in each group and the remaining 10 mice were left to carry out the conception rate test.
Mice were executed and their ovaries and uterus were removed. Ovaries were fixed with […] and tissue slices were observed under the ordinary optical microscope after the process of HE tinction and oil red 0 tinction. Uterus were fixed with 100 g/L formaldehyde and tissue slices were imbedded with paraffin and undergone the process of 4 μm slicing and ER marking. Light microscopy was used for observation after the hematoxylin counter staining.

[2] = test system: mice with sterility induced by androgens; assay: Estradiol (E2) content in sera of mice with sterility induced by androgens (ELISA); conditions: 18 mg/kg intragastric, 4 weeks, TP-modelled female mice, serum
Protocol: Blank control group: Intragastrically administrated with distilled water on daily basis at a dose of 2 ml/d;
Model control group: Intragastrically administrated with distilled water on daily basis and at a dose of 2 ml/d;
Irrigation was stopped for 48 h, orbital blood of mice was collected, serum was separated and enzyme linked immunosorbent assay was used to detect E2.

[3] = test system: mice with sterility induced by androgens; assay: Conception conditions of mated female mice after the medication; conditions: 18 mg/kg, 4 weeks, 10 d after mating
Protocol: as §1, §2
To put 10 mice from each cage into the cage where 4 normally-matured male mice. 10 d after the mating, uterus of female mice were dissected to observe the conception conditions.

## CCN(CC)CCOc1ccc(C(=C(Cl)c2ccccc2)c2ccccc2)cc1 [Clomifenecitrate capsules, Clomifenecitrate]
[1]
  Interstitial gland composition: 24.96 ± 5.00
  Quantity of follicles: 37.6 ± 6.4 piece
  Quantity of oocytes: 8.7 ± 2.2 piece
[2]
  E2: 12.76 ± 4.98 µg/L
[3]; 10 female mice
  Number of conception: 6 mice
[3]
  Rate of conception: 60.0%
